Results as given in patent US20070128217A1 (priority 2003, published 2007).

Experiments:
[1] = tested on: antibodies in sera from SARS patients (sera 1a, 1b, 2, 6, 37, 62, London, SARS-yellow, SARS-green); type: binding, human; set-up: Binding of serum 6 to linear peptides of protein X1 of SARS-CoV Urbani / Binding of serum 37 to linear peptides of protein X1 of SARS-CoV Urbani / Binding of serum 6 to looped/cyclic peptide (PEPSCAN-ELISA) / Binding of serum 37 to looped/cyclic peptide (PEPSCAN-ELISA) / Binding of serum 37 to looped/cyclic peptides of protein X1 of SARS-CoV Urbani / Binding of serum 6 to linear peptides of protein X2 / Binding of serum 37 to linear peptides of protein X2 / Binding of serum 37 to looped/cyclic peptides of protein X2 of SARS-CoV Urbani / Binding of serum 6 to linear peptides of protein M of SARS-CoV Urbani / Binding of serum 37 to linear peptides of protein M of SARS-CoV Urbani / Binding of serum 6 to looped/cyclic peptides of protein M of SARS-CoV Urbani / Binding of serum 37 to looped/cyclic peptides of protein M of SARS-CoV Urbani / Binding of serum 6 to linear peptides of protein X3 of SARS-CoV Urbani / Binding of serum 37 to linear peptides of protein X3 of SARS-CoV Urbani / Binding of serum 37 to looped/cyclic peptides of protein X3 of SARS-CoV Urbani / Binding of serum 6 to linear peptides of protein X4 of SARS-CoV Urbani / Binding of serum 37 to linear peptides of protein X4 of SARS-CoV Urbani / Binding of serum 37 to looped/cyclic peptides of protein X4 of SARS-CoV Urbani / Binding of serum 6 to linear peptides of protein X5 of SARS-CoV Urbani / Binding of serum 37 to linear peptides of protein X5 of SARS-CoV Urbani / Binding of serum 37 to looped/cyclic peptides of protein X5 of SARS-CoV Urbani / Binding of serum 6 to linear peptides of protein N of SARS-CoV Urbani / Binding of serum 37 to linear peptides of protein N of SARS-CoV Urbani / Binding of serum 6 to linear peptide (PEPSCAN-ELISA) / Binding of serum 1a to looped/cyclic peptides of protein N of SARS-CoV Urbani / Binding of serum 1b to looped/cyclic peptides of protein N of SARS-CoV Urbani / Binding of serum 2 to looped/cyclic peptides of protein N of SARS-CoV Urbani / Binding of serum 6 to looped/cyclic peptides of protein N of SARS-CoV Urbani / Binding of serum 37 to looped/cyclic peptides of protein N of SARS-CoV Urbani / Binding of serum 62 to looped/cyclic peptides of protein N of SARS-CoV Urbani / Binding of serum London to looped/cyclic peptides of protein N of SARS-CoV Urbani / Binding of serum SARS-green to looped/cyclic peptides of protein N of SARS-CoV Urbani: unit not given here
[2] = tested on: rabbit serum obtained by immunizing a rabbit with the SARS-CoV strain Frankfurt 1; type: binding; set-up: Binding of a rabbit serum to linear peptides / Binding of a rabbit serum to looped peptides / Rabbit serum linear peptides / Rabbit serum looped peptides / Binding of a rabbit serum to linear peptides of protein N of SARS-CoV Urbani (Rabbit serum linear peptides) / Binding of a rabbit serum to looped/cyclic peptides of protein N of SARS-CoV Urbani (Rabbit serum looped peptides): unit not given here
[3] = tested on: control sera (pooled serum of ten healthy LUMC hospital workers; commercial negative donor pooled serum from the Dutch bloodbank); type: binding, human; set-up: Binding of Control serum LUMC to linear peptides / Binding of Control serum Blood-bank to linear peptides / Binding of Control serum LUMC to looped peptides / Binding of Control Serum Blood-Bank to Looped peptides / Binding of Control serum LUMC to linear peptides of the protein M of SARS-CoV Urbani / Binding of Control serum Blood-bank to linear peptides of the protein M of SARS-CoV Urbani / Binding of Control serum LUMC to looped peptides of the protein M of SARS-CoV Urbani / Binding of Control Serum Blood-Bank to Looped peptides of the protein M of SARS-CoV Urbani: unit not given here

## NLVIGFLFLAWIMLL
[1]
  Binding of serum 1a to linear peptides of protein M of SARS-CoV Urbani: 0.7
  Binding of serum 1a to looped/cyclic peptides of protein M of SARS-CoV Urbani: 0.7
  Binding of serum 1b to linear peptides of protein M of SARS-CoV Urbani: 0.5
  Binding of serum 1b to looped/cyclic peptides of protein M of SARS-CoV Urbani: 0.6
  Binding of serum 2 to linear peptides of protein M of SARS-CoV Urbani: 0.5
  Binding of serum 2 to looped/cyclic peptides of protein M of SARS-CoV Urbani: 0.5
  Binding of serum 6 to linear peptides of protein M of SARS-CoV Urbani: 0.3
  Binding of serum 6 to looped/cyclic peptides of protein M of SARS-CoV Urbani: 0.6
  Binding of serum 37 to linear peptides of protein M of SARS-CoV Urbani: 0.6
  Binding of serum 37 to looped/cyclic peptides of protein M of SARS-CoV Urbani: 0.6
  Binding of serum 62 to linear peptides of protein M of SARS-CoV Urbani: 0.7
  Binding of serum 62 to looped/cyclic peptides of protein M of SARS-CoV Urbani: 0.7
  Binding of serum London to linear peptides of protein M of SARS-CoV Urbani: 0.3
  Binding of serum London to looped/cyclic peptides of protein M of SARS-CoV Urbani: 0.3
  Binding of serum SARS-green to linear peptides of protein M of SARS-CoV Urbani: 0.2
  Binding of serum SARS-green to looped/cyclic peptides of protein M of SARS-CoV Urbani: 0.3
  Binding of serum SARS-yellow to linear peptides of protein M of SARS-CoV Urbani: 0.0
  Binding of serum SARS-yellow to looped/cyclic peptides of protein M of SARS-CoV Urbani: 0.5
[2]
  Rabbit serum linear peptides: 0.2
  Rabbit serum looped peptides: 0.2
[3]
  Binding of Control Serum Blood-Bank to Looped peptides of the protein M of SARS-CoV Urbani: 0.6
  Binding of Control serum Blood-bank to linear peptides of the protein M of SARS-CoV Urbani: 0.5
  Binding of Control serum LUMC to linear peptides of the protein M of SARS-CoV Urbani: 0.3
  Binding of Control serum LUMC to looped peptides of the protein M of SARS-CoV Urbani: 0.8

## HRMCKYTQSTALQEL
[1]
  Binding of serum 1a to linear peptides of protein X2: 0.9
  Binding of serum 1a to looped/cyclic peptides of protein X2 of SARS-CoV Urbani: 0.6
  Binding of serum 1b to linear peptides of protein X2: 0.8
  Binding of serum 1b to looped/cyclic peptides of protein X2 of SARS-CoV Urbani: 0.6
  Binding of serum 2 to linear peptides of protein X2: 0.5
  Binding of serum 2 to looped/cyclic peptides of protein X2 of SARS-CoV Urbani: 0.4
  Binding of serum 6 to linear peptides of protein X2: 0.5
  Binding of serum 6 to looped/cyclic peptides of protein X2 of SARS-CoV Urbani: 1.0
  Binding of serum 37 to linear peptides of protein X2: 0.8
  Binding of serum 37 to looped/cyclic peptides of protein X2 of SARS-CoV Urbani: 0.5
  Binding of serum 62 to linear peptides of protein X2: 0.8
  Binding of serum 62 to looped/cyclic peptides of protein X2 of SARS-CoV Urbani: 0.6
  Binding of serum London to linear peptides of protein X2: 0.5
  Binding of serum London to looped/cyclic peptides of protein X2 of SARS-CoV Urbani: 1.5
  Binding of serum SARS-green to linear peptides of protein X2: 0.8
  Binding of serum SARS-green to looped/cyclic peptides of protein X2 of SARS-CoV Urbani: 0.5
  Binding of serum SARS-yellow to linear peptides of protein X2: 0.8
  Binding of serum SARS-yellow to looped/cyclic peptides of protein X2 of SARS-CoV Urbani: 0.5
[2]
  Binding of a rabbit serum to linear peptides: 0.3
  Binding of a rabbit serum to looped peptides: 0.4
[3]
  Binding of Control Serum Blood-Bank to Looped peptides: 0.8
  Binding of Control serum Blood-bank to linear peptides: 0.9
  Binding of Control serum LUMC to linear peptides: 0.7
  Binding of Control serum LUMC to looped peptides: 0.6

## SYFVASFRLFARTRS
[1]
  Binding of serum 1a to linear peptides of protein M of SARS-CoV Urbani: 0.7
  Binding of serum 1b to linear peptides of protein M of SARS-CoV Urbani: 0.6
  Binding of serum 2 to linear peptides of protein M of SARS-CoV Urbani: 0.5
  Binding of serum 6 to linear peptides of protein M of SARS-CoV Urbani: 0.5
  Binding of serum 37 to linear peptides of protein M of SARS-CoV Urbani: 0.4
  Binding of serum 62 to linear peptides of protein M of SARS-CoV Urbani: 0.4
  Binding of serum London to linear peptides of protein M of SARS-CoV Urbani: 0.3
  Binding of serum SARS-green to linear peptides of protein M of SARS-CoV Urbani: 0.4
  Binding of serum SARS-yellow to linear peptides of protein M of SARS-CoV Urbani: 0.1
  Recognition of the peptide by sera of SARS-CoV infected individuals, and form (linear, looped/cyclic) in which it is recognized: recognized in looped/cyclic form
[2]
  Rabbit serum linear peptides: 0.2
  Rabbit serum looped peptides: 0.4
[3]
  Binding of Control Serum Blood-Bank to Looped peptides of the protein M of SARS-CoV Urbani: 1.0
  Binding of Control serum Blood-bank to linear peptides of the protein M of SARS-CoV Urbani: 0.6
  Binding of Control serum LUMC to linear peptides of the protein M of SARS-CoV Urbani: 0.5
  Binding of Control serum LUMC to looped peptides of the protein M of SARS-CoV Urbani: 0.9

## FTEVYYQLESTQITT
[1]
  Binding of serum 1a to linear peptides of protein X1 of SARS-CoV Urbani: 0.8
  Binding of serum 1a to looped/cyclic peptides of protein X1 of SARS-CoV Urbani: 0.5
  Binding of serum 1b to linear peptides of protein X1 of SARS-CoV Urbani: 0.7
  Binding of serum 1b to looped/cyclic peptides of protein X1 of SARS-CoV Urbani: 0.5
  Binding of serum 2 to linear peptides of protein X1 of SARS-CoV Urbani: 0.5
  Binding of serum 2 to looped/cyclic peptides of protein X1 of SARS-CoV Urbani: 0.4
  Binding of serum 6 to linear peptides of protein X1 of SARS-CoV Urbani: 0.5
  Binding of serum 6 to looped/cyclic peptides of protein X1 of SARS-CoV Urbani: 0.4
  Binding of serum 37 to linear peptides of protein X1 of SARS-CoV Urbani: 0.7
  Binding of serum 37 to looped/cyclic peptides of protein X1 of SARS-CoV Urbani: 0.7
  Binding of serum 62 to linear peptides of protein X1 of SARS-CoV Urbani: 0.7
  Binding of serum 62 to looped/cyclic peptides of protein X1 of SARS-CoV Urbani: 0.5
  Binding of serum London to linear peptides of protein X1 of SARS-CoV Urbani: 0.3
  Binding of serum London to looped/cyclic peptides of protein X1 of SARS-CoV Urbani: 0.2
  Binding of serum SARS-green to linear peptides of protein X1 of SARS-CoV Urbani: 0.5
  Binding of serum SARS-green to looped/cyclic peptides of protein X1 of SARS-CoV Urbani: 0.3
  Binding of serum SARS-yellow to linear peptides of protein X1 of SARS-CoV Urbani: 0.5
  Binding of serum SARS-yellow to looped/cyclic peptides of protein X1 of SARS-CoV Urbani: 0.4
[2]
  Binding of a rabbit serum to linear peptides: 0.1
  Binding of a rabbit serum to looped peptides: 0.5
[3]
  Binding of Control Serum Blood-Bank to Looped peptides: 0.6
  Binding of Control serum Blood-bank to linear peptides: 0.6
  Binding of Control serum LUMC to linear peptides: 0.5
  Binding of Control serum LUMC to looped peptides: 0.6

## TSLLKTHRMCKYTQS
[1]
  Binding of serum 1a to linear peptides of protein X2: 0.7
  Binding of serum 1a to looped/cyclic peptides of protein X2 of SARS-CoV Urbani: 0.4
  Binding of serum 1b to linear peptides of protein X2: 0.7
  Binding of serum 1b to looped/cyclic peptides of protein X2 of SARS-CoV Urbani: 0.3
  Binding of serum 2 to linear peptides of protein X2: 0.6
  Binding of serum 2 to looped/cyclic peptides of protein X2 of SARS-CoV Urbani: 0.2
  Binding of serum 6 to linear peptides of protein X2: 0.5
  Binding of serum 6 to looped/cyclic peptides of protein X2 of SARS-CoV Urbani: 0.2
  Binding of serum 37 to linear peptides of protein X2: 0.7
  Binding of serum 37 to looped/cyclic peptides of protein X2 of SARS-CoV Urbani: 0.2
  Binding of serum 62 to linear peptides of protein X2: 0.7
  Binding of serum 62 to looped/cyclic peptides of protein X2 of SARS-CoV Urbani: 0.4
  Binding of serum London to linear peptides of protein X2: 0.5
  Binding of serum London to looped/cyclic peptides of protein X2 of SARS-CoV Urbani: 0.2
  Binding of serum SARS-green to linear peptides of protein X2: 0.6
  Binding of serum SARS-green to looped/cyclic peptides of protein X2 of SARS-CoV Urbani: 0.2
  Binding of serum SARS-yellow to linear peptides of protein X2: 0.8
  Binding of serum SARS-yellow to looped/cyclic peptides of protein X2 of SARS-CoV Urbani: 0.3
[2]
  Binding of a rabbit serum to linear peptides: 0.4
  Binding of a rabbit serum to looped peptides: 0.4
[3]
  Binding of Control Serum Blood-Bank to Looped peptides: 0.4
  Binding of Control serum Blood-bank to linear peptides: 1.0
  Binding of Control serum LUMC to linear peptides: 0.9
  Binding of Control serum LUMC to looped peptides: 0.4
